What is called MTD is the highest dose tested that stayed within the study's limit of toxicity. The low end stands for poorer tolerability, the high end for better tolerability. In general, Tmax refers to the time at which the peak concentration occurs. The term NOAEL denotes the highest tested level that showed no adverse finding.

Data set [1] can be described thus: Maximum tolerated dose followed by 7-day repeat-dose toxicology in dogs (Study 62958). It counts as in vivo, dog. Conditions: both sexes, dog, in vivo, inhaled or intranasal; intranasal instillation. As to the method: (§1) In support of these objectives, the study consisted of 2 individual phases.
(§2) The test item was administered once by intranasal instillation to one male and female dog for up to 5 dose levels until the highest tolerable dose (MTD) was determined as described in Table 11.
(§3) During Phase 2, assessments of mortality, clinical signs, body weights and food consumption were performed. […] Following the last dosing, all animals were euthanized and subjected to a necropsy examination on Day 8. The necropsy consisted of an external examination; including reference to all clinically-recorded lesions, as well as a detailed internal examination. Study plan specific tissues/organs were collected and preserved following necropsy but were not further examined microscopically.

The next data set has as its system dogs. Described as above. The format is in vivo, dog. The method, then:
as §1, §2, §3

Data set [2] is described as follows: Toxicokinetics in dog MTD study (Study 62958). The format is in vivo. As to the method: as §3
There were no sex differences in any of the measured toxicokinetic parameters on either occasion.

Data set [3] in a line: 14-day repeat-dose intranasal toxicity study with 14-day recovery in dogs (Study 62959). It counts as in vivo, dog. Conditions: both sexes, Beagle, dog, in vivo, inhaled or intranasal; 14 consecutive days intranasal, 14-day recovery. The method, then:
(§4) Assessments of mortality, clinical signs, olfactory reflex, body weights, food consumption, ophthalmology, and electrocardiograms were performed. In addition, clinical pathology assessments (hematology, coagulation, clinical chemistry and urinalysis) were evaluated once pretreatment and at termination. Blood samples were collected from the jugular vein of all animals on Days 1 and 14, at up to 8 time points relative to treatment, for analysis of test item concentration in plasma and the subsequent calculation of toxicokinetic parameters. Following dosing, the Main animals were euthanized and subjected to a complete necropsy examination on Day 15. […] All Main and Recovery study animals underwent complete necropsy examinations, selected tissues/organs were retained, and microscopic evaluations of a standard set of tissues were performed.

The test system of another data set is Beagle dogs. The description is as above. It counts as in vivo, dog. As to the method:
as §4

The next data set has as its system male Sprague-Dawley rats. The experiment in a line: Functional Observational Battery (FOB), single intranasal administration (ITR study 15951). It counts as in vivo, rat. The method, then:
The test and control/vehicle items were administered by single dose intranasal administration to both nostrils, as shown in Table 7.
Parameters monitored included mortality and clinical signs. General behavioral changes were assessed using FOB at 6 timepoints: before dosing, and at 15 minutes, 1, 2, 4, and 24 hours postdosing. On each occasion, the FOB was performed at 4 stages: when the animals were in their home cage, while handling the animals, when the animals were freely moving in an open-field, and when they received diverse stimuli for reactivity evaluation. The body temperature and neuromuscular strength were also measured on each of the occasions detailed above.

A further data set has as its system Dog. The experiment in a line: Summary of clinical observations in applicant-sponsored dog studies. The following applies: Dog 1.0 mg/kg (= 33 mg HED); preliminary data, ongoing study. It counts as in vivo. The text has this: (§5) Based on preliminary data from another ongoing study in dogs, it has been observed that the site of blood sampling in dogs may impact the measured plasma exposure. Samples from the jugular vein may result in higher apparent exposure levels than samples from the cephalic vein, which might be due to the local transmucosal route of administration (also reported in the scientific literature (Illum, 2003; Sohlberg, 2013)). Therefore, dose escalation criteria for the Phase 1 Single Ascending Dose study are based on assessment of clinical criteria, safety factors and exposure. A maximum dose of 14 mg has been designated.

Test in data set [4]: as above
The format is in vivo. The following applies: beagle, in vivo, other: intranasal instillation; Dog; HED 50 mg; read-out: NOAEL determined in the 14-day toxicology studies.
Text: as §5

In the case of `COc1ccc2[nH]cc(CCN(C)C)c2c1` [BPL-5MEO, 5-methoxy-N,N-dimethyltryptamine], the MTD in data set [1] was 2.5 mg/kg. Further, the Mortality and bodyweights result in the data set on dogs (dose escalation phase, 2 to 5 mg/kg) is recorded as “no BPL-5MEO-related effects on mortality or bodyweights”. Further, the “Duration of convulsion in the male animal” value with dogs (last escalating dose 3.5 mg/kg/day) came to 8 min. For the same compound, the “Accumulation over the 7-day treatment period” value in data set [2] (daily intranasal instillation) is “did not accumulate”. Further, in data set [2] (dog, plasma, inhaled or intranasal, dogs, Days 1 and 7, both sexes), the Tmax lay in the range of 2 to 15 min. Also, the NOAEL at 14 days in data set [3] is 1.5 mg/kg/day; in data set [4], 1.5 mg/kg. Also, the “Effect on reproductive tissues” value with Beagle dogs (14-day pivotal GLP intranasal toxicity study, dogs) was “no evidence of an adverse effect on reproductive tissues”. The “Triglyceride (mmol/L), Mean ± SD Day 14” value with Beagle dogs (Group 2, 0.4 mg/kg/day, Females) is given as 0.46 ± 0.61 mmol/L; in the data set on Beagle dogs (Group 2, 0.4 mg/kg/day, Males), 0.40 ± 0.11 mmol/L; in the data set on Beagle dogs (Group 3, 0.8 mg/kg/day, Females) it was 0.47 ± 0.22 mmol/L; in the data set with Beagle dogs (Group 3, 0.8 mg/kg/day, Males), 0.44 ± 0.07 mmol/L. Moreover, in the data set on Beagle dogs (all treated groups), the “Time to resolution of clinical signs” value was no more than 90 min. Besides, in the data set on Beagle dogs (animals in all treated groups), the Transient clinical observations entry was “incoordination, vocalization, mydriasis, decreased or increased activity, increased respiration, gnawing cage wire, excessive licking of nose or lips and circling”. Further, in the data set on male Sprague-Dawley rats (10 mg/kg), the “Clinical sign in one animal” value is given as “twitching”. Further, the “Resolution of clinical signs and FOB changes” value in the data set on male Sprague-Dawley rats (1.5, 3, and 10 mg/kg) is given as “fully resolved within 1 or 2 hours following dosing”. Further, the “Clinical signs in some animals” value with male Sprague-Dawley rats (3 and 10 mg/kg doses) was “Tremors, salivation, and gasping”. Moreover, the FOB behavioral domain entry in the data set on male Sprague-Dawley rats (15 minutes postdose, comparable to control at 1-hour postdose) was “transient decreased activity, lying on the cage floor, and decreased rearing”. Moreover, in the data set with male Sprague-Dawley rats (all dose groups, transient), the “Clinical signs immediately following dosing” value was “decreased activity, lying on the cage floor, shallow/increased respiration and dilated pupils”. Further, in the data set on male Sprague-Dawley rats (all dose levels, comparable to control at 1-hour postdose), the “FOB neurological (sensorimotor)/neuromuscular domain” value is on record as “transient changes in gait (difficulty in movement)”. Besides, the FOB autonomic domain result in the data set on male Sprague-Dawley rats (all dose levels, comparable with control at 2 hours postdose) was “salivation, piloerection, increased respiration, dilated pupils and changes in body temperature”. In the data set with Dog, the Clinical observations entry is listed as “Slighttremor”.

The values are drawn from patent publication US11518742B2 (priority 2020, dated 2022).
